Test system: patients with metastases to the skeleton from breast or prostate cancer
Test: Phase IA/IB trials of ^223Ra, single and repeated injection, safety and tolerance (Example 9)
Assay type: in vivo, humans
Description: The experiment of Example 8 was carried out with dose metering calibrated to a high accuracy. Dose levels measured at 46, 93, 163, 213, and 250 kBq/kg of ^223Ra were given as single doses and a multiple-dose schedule was also introduced.
Thirty-one patients with metastases to the skeleton, 10 from breast- and 21 from prostate cancer, all, were enrolled in phase IA and phase IB trials. The prostate cancer patients were from 60 to 85 years and had body weights ranging from 50 to 120 kg. All of them had progressive disease considered hormone refractory. The breast cancer patients were from 40 to 70 years, with bodyweight from 50 to 95 kg. All of them were progressing second hormonal and/or chemotherapy. The primary objective was to evaluate the safety and tolerance of ^223Ra.
The follow up period was 8 weeks.
In the single injection trial the following average dose levels were used; 46, 93, 163, 213, and 250-kBq kg^−1 bodyweight (b.w.). Five patients were included at each dose level. Fifteen prostate- and 10 breast cancer patients were included.
In the repeated injection schedule, 6 patients, all with prostate cancer, were included. Three patients were scheduled to receive 5 doses, each of 50 kBq kg^−1 b.w. at three-weeks intervals, and three patients to receive 2 doses, each of 125 kBq kg−1 b.w. at six-weeks intervals.
Radium-223 was produced from ^227Ac/^227Th and purified using Ac-resin to immobilize ^227Ac and ^227Th as described in WO0040275. The product concentrate, i.e., dissolved ^223RaCl2 was tested for radionuclide purity by gamma spectroscopy before further use. A concentrate of the ^223Ra in NaCl and Na Citrate was sent sterile production. Isotonicity, pH, and activity concentration were adjusted; a sample kept aside for pathogen and pyrogen testing, and the final product was filled in sterile vials that were subsequently capped with a sealed rubber membrane penetrable to syringes. The vials were put into lead containers and shipped to the hospitals.
The effect of the radium-223 on neutrophil cell fractions, platelets, white-blood-cell count and Heamoglobin were monitored to give a wide ranging measure of haematological toxicity. […] The results were expressed as the number of patients in the study showing a particular level of toxicity on the CTC Toxicity Grade scale and are set out in Table 6 below.

[1] = Multiple dosing 2 × 125 kBq/kg, n = 3
[2] = Multiple dosing 5 × 50 kBq/kg, n = 3

[223Ra] [^223Ra, radium-223]
Haemoglobin, CTC Grade 0: number of patients [1]: 0 | Haemoglobin, CTC Grade 1: number of patients [1]: 1 | Haemoglobin, CTC Grade 2: number of patients [1]: 2 | Neutrophile, CTC Grade 0: number of patients [1]: 3 | Neutrophile, CTC Grade 1: number of patients [1]: 0 | Neutrophile, CTC Grade 2: number of patients [1]: 0 | Neutrophile, CTC Grade 3: number of patients [1]: 0 | Platelets, CTC Grade 0: number of patients [1]: 3 | Platelets, CTC Grade 1: number of patients [1]: 0 | W B C, CTC Grade 0: number of patients [1]: 2 | W B C, CTC Grade 1: number of patients [1]: 0 | W B C, CTC Grade 2: number of patients [1]: 1 | W B C, CTC Grade 3: number of patients [1]: 0 | Haemoglobin, CTC Grade 0: number of patients [2]: 0 | Haemoglobin, CTC Grade 1: number of patients [2]: 2 | Haemoglobin, CTC Grade 2: number of patients [2]: 1 | Neutrophile, CTC Grade 0: number of patients [2]: 1 | Neutrophile, CTC Grade 1: number of patients [2]: 0 | Neutrophile, CTC Grade 2: number of patients [2]: 2 | Neutrophile, CTC Grade 3: number of patients [2]: 0 | Platelets, CTC Grade 0: number of patients [2]: 2 | Platelets, CTC Grade 1: number of patients [2]: 1 | W B C, CTC Grade 0: number of patients [2]: 1 | W B C, CTC Grade 1: number of patients [2]: 0 | W B C, CTC Grade 2: number of patients [2]: 2 | W B C, CTC Grade 3: number of patients [2]: 0 | Haemoglobin, CTC Grade 0: number of patients (Re-treatment, n = 2): 1 | Haemoglobin, CTC Grade 1: number of patients (Re-treatment, n = 2): 1 | Haemoglobin, CTC Grade 2: number of patients (Re-treatment, n = 2): 0 | Neutrophile, CTC Grade 0: number of patients (Re-treatment, n = 2): 2 | Neutrophile, CTC Grade 1: number of patients (Re-treatment, n = 2): 0 | Neutrophile, CTC Grade 2: number of patients (Re-treatment, n = 2): 0 | Neutrophile, CTC Grade 3: number of patients (Re-treatment, n = 2): 0 | Platelets, CTC Grade 0: number of patients (Re-treatment, n = 2): 2 | Platelets, CTC Grade 1: number of patients (Re-treatment, n = 2): 0 | W B C, CTC Grade 0: number of patients (Re-treatment, n = 2): 2 | W B C, CTC Grade 1: number of patients (Re-treatment, n = 2): 0 | W B C, CTC Grade 2: number of patients (Re-treatment, n = 2): 0 | W B C, CTC Grade 3: number of patients (Re-treatment, n = 2): 0 | Haemoglobin, CTC Grade 0: number of patients (Single dose 46 kBq/kg, n = 5): 4 | Haemoglobin, CTC Grade 1: number of patients (Single dose 46 kBq/kg, n = 5): 0 | Haemoglobin, CTC Grade 2: number of patients (Single dose 46 kBq/kg, n = 5): 1 | Neutrophile, CTC Grade 0: number of patients (Single dose 46 kBq/kg, n = 5): 4 | Neutrophile, CTC Grade 1: number of patients (Single dose 46 kBq/kg, n = 5): 0 | Neutrophile, CTC Grade 2: number of patients (Single dose 46 kBq/kg, n = 5): 1 | Neutrophile, CTC Grade 3: number of patients (Single dose 46 kBq/kg, n = 5): 0 | Platelets, CTC Grade 0: number of patients (Single dose 46 kBq/kg, n = 5): 5 | Platelets, CTC Grade 1: number of patients (Single dose 46 kBq/kg, n = 5): 0 | W B C, CTC Grade 0: number of patients (Single dose 46 kBq/kg, n = 5): 4 | W B C, CTC Grade 1: number of patients (Single dose 46 kBq/kg, n = 5): 0 | W B C, CTC Grade 2: number of patients (Single dose 46 kBq/kg, n = 5): 1 | W B C, CTC Grade 3: number of patients (Single dose 46 kBq/kg, n = 5): 0 | Haemoglobin, CTC Grade 0: number of patients (Single dose 93 kBq/kg, n = 5): 2 | Haemoglobin, CTC Grade 1: number of patients (Single dose 93 kBq/kg, n = 5): 2 | Haemoglobin, CTC Grade 2: number of patients (Single dose 93 kBq/kg, n = 5): 1 | Neutrophile, CTC Grade 0: number of patients (Single dose 93 kBq/kg, n = 5): 3 | Neutrophile, CTC Grade 1: number of patients (Single dose 93 kBq/kg, n = 5): 1 | Neutrophile, CTC Grade 2: number of patients (Single dose 93 kBq/kg, n = 5): 1 | Neutrophile, CTC Grade 3: number of patients (Single dose 93 kBq/kg, n = 5): 0 | Platelets, CTC Grade 0: number of patients (Single dose 93 kBq/kg, n = 5): 5 | Platelets, CTC Grade 1: number of patients (Single dose 93 kBq/kg, n = 5): 0 | W B C, CTC Grade 0: number of patients (Single dose 93 kBq/kg, n = 5): 4 | W B C, CTC Grade 1: number of patients (Single dose 93 kBq/kg, n = 5): 0 | W B C, CTC Grade 2: number of patients (Single dose 93 kBq/kg, n = 5): 1 | W B C, CTC Grade 3: number of patients (Single dose 93 kBq/kg, n = 5): 0 | Haemoglobin, CTC Grade 0: number of patients (Single dose 163 kBq/kg, n = 5): 4 | Haemoglobin, CTC Grade 1: number of patients (Single dose 163 kBq/kg, n = 5): 0 | Haemoglobin, CTC Grade 2: number of patients (Single dose 163 kBq/kg, n = 5): 1 | Neutrophile, CTC Grade 0: number of patients (Single dose 163 kBq/kg, n = 5): 3 | Neutrophile, CTC Grade 1: number of patients (Single dose 163 kBq/kg, n = 5): 0 | Neutrophile, CTC Grade 2: number of patients (Single dose 163 kBq/kg, n = 5): 1 | Neutrophile, CTC Grade 3: number of patients (Single dose 163 kBq/kg, n = 5): 1 | Platelets, CTC Grade 0: number of patients (Single dose 163 kBq/kg, n = 5): 4 | Platelets, CTC Grade 1: number of patients (Single dose 163 kBq/kg, n = 5): 1 | W B C, CTC Grade 0: number of patients (Single dose 163 kBq/kg, n = 5): 3 | W B C, CTC Grade 1: number of patients (Single dose 163 kBq/kg, n = 5): 0 | W B C, CTC Grade 2: number of patients (Single dose 163 kBq/kg, n = 5): 1 | W B C, CTC Grade 3: number of patients (Single dose 163 kBq/kg, n = 5): 1 | Haemoglobin, CTC Grade 0: number of patients (Single dose 213 kBq/kg, n = 5): 2 | Haemoglobin, CTC Grade 1: number of patients (Single dose 213 kBq/kg, n = 5): 2 | Haemoglobin, CTC Grade 2: number of patients (Single dose 213 kBq/kg, n = 5): 1 | Neutrophile, CTC Grade 0: number of patients (Single dose 213 kBq/kg, n = 5): 2 | Neutrophile, CTC Grade 1: number of patients (Single dose 213 kBq/kg, n = 5): 1 | Neutrophile, CTC Grade 2: number of patients (Single dose 213 kBq/kg, n = 5): 2 | Neutrophile, CTC Grade 3: number of patients (Single dose 213 kBq/kg, n = 5): 0 | Platelets, CTC Grade 0: number of patients (Single dose 213 kBq/kg, n = 5): 5 | Platelets, CTC Grade 1: number of patients (Single dose 213 kBq/kg, n = 5): 0 | W B C, CTC Grade 0: number of patients (Single dose 213 kBq/kg, n = 5): 2 | W B C, CTC Grade 1: number of patients (Single dose 213 kBq/kg, n = 5): 0 | W B C, CTC Grade 2: number of patients (Single dose 213 kBq/kg, n = 5): 2 | W B C, CTC Grade 3: number of patients (Single dose 213 kBq/kg, n = 5): 1 | Haemoglobin, CTC Grade 0: number of patients (Single dose 250 kBq/kg, n = 5): 2 | Haemoglobin, CTC Grade 1: number of patients (Single dose 250 kBq/kg, n = 5): 3 | Haemoglobin, CTC Grade 2: number of patients (Single dose 250 kBq/kg, n = 5): 0 | Neutrophile, CTC Grade 0: number of patients (Single dose 250 kBq/kg, n = 5): 2 | Neutrophile, CTC Grade 1: number of patients (Single dose 250 kBq/kg, n = 5): 0 | Neutrophile, CTC Grade 2: number of patients (Single dose 250 kBq/kg, n = 5): 2 | Neutrophile, CTC Grade 3: number of patients (Single dose 250 kBq/kg, n = 5): 1 | Platelets, CTC Grade 0: number of patients (Single dose 250 kBq/kg, n = 5): 2 | Platelets, CTC Grade 1: number of patients (Single dose 250 kBq/kg, n = 5): 3 | W B C, CTC Grade 0: number of patients (Single dose 250 kBq/kg, n = 5): 2 | W B C, CTC Grade 1: number of patients (Single dose 250 kBq/kg, n = 5): 0 | W B C, CTC Grade 2: number of patients (Single dose 250 kBq/kg, n = 5): 2 | W B C, CTC Grade 3: number of patients (Single dose 250 kBq/kg, n = 5): 1 | Reversible diarrhoea, grades 1 and 2, share of patients (all dose groups, total): approximately 50% | Dose-limiting toxicity (dose escalating part, single dose 46 to 250 kBq/kg): not observed | Thrombocytes, toxicity grade (even at the two highest dose levels): 1 grade | Vomiting, number of patients (highest dose group): four | Nausea, number of patients (highest dose level): four | Neutropenia of maximum grade 3, number of patients (single injection trial): two | Reversible myelosuppression, nadir after injection (single injection, recovery during the follow-up period): 2-3 weeks | Additional toxicity related to the repetition of the treatment (three patients in the 50×5 schedule): did not experience any additional toxicity
